{"source": "paper PMC10721928", "about": "“Structures revealing mechanisms of resistance and collateral sensitivity of Plasmodium falciparum to proteasome inhibitors” (Nature Communications, 2023)", "key": {"[1]": {"tested_on": "Mutants resistant to proteasome inhibitors", "conditions": "versus corresponding wild-type strains; cited from earlier work", "excerpt": "(§1) Mutations in Kelch13 (K13) are associated with ART resistance at the ring stage in laboratory settings[20]–[22]. […] Even a strain with doub ..."}, "[2]": {"tested_on": "DR1", "assay": "Parasite growth inhibition assay, DR1", "type": "cell-based", "conditions": "Plasmodium falciparum, read-out: EC50 (Fig. 1e)", "experimental": "(§2) Parasite growth inhibition assays for P. falciparum wild type and mutants were performed as reported[19],[32]."}, "[3]": {"tested_on": "Cam3.I^R539T", "assay": "Ring-stage survival assay, ART-resistant", "type": "cell-based, Plasmodium falciparum", "conditions": "700 nM, 6 h", "experimental": "(§3) Ring-stage survival assays (RSA) were performed as reported. Parasite cultures, artemisinin resistant Cam3.I^R539T and the genetically engineered artemisinin sensitive revertant Cam3.I^rev, were synchronized with 5% sorbitol and a Percoll-sorbitol gradient to obtain tightly synchronized late-stage parasites. After isolation, the tightly synchronized parasites were then allowed to reinvade fresh red blood cells for 3 h and the microscopically confirmed ring stage parasite cultures were again subjected to 5% sorbitol to obtain 0–3 h rings. The isolated ring stage cultures were then plated into a 96-well plate at 0.5% parasitemia and treated with DHA and TDI-8304 at 700 nM at 37 °C in standard gas conditions for 6 h. The plates were then spun and washed to remove compounds and replenished with fresh medium without compounds. Parasite growth was assessed 66 h later using flow cytometry (Becton-Dickson flow cytometer) and nucleic acid stains HO (Hoechst 33342) and TO (thiazole orange)."}, "[4]": {"tested_on": "Dd2", "assay": "Parasite growth inhibition assay, Dd2", "type": "cell-based", "conditions": "Plasmodium falciparum", "experimental": "as §2"}, "[5]": {"tested_on": "DR1/2/4", "assay": "Parasite growth inhibition assay, DHA-selected clones", "type": "cell-based, Plasmodium falciparum", "experimental": "as §2"}, "[6]": {"tested_on": "DR2", "assay": "Parasite growth inhibition assay, DR2", "type": "cell-based", "conditions": "Plasmodium falciparum, read-out: EC50 (Fig. 1e)", "experimental": "as §2"}, "[7]": {"tested_on": "Cam3.I^Rev", "assay": "Ring-stage survival assay, revertant", "type": "cell-based, Plasmodium falciparum", "conditions": "700 nM, 6 h", "experimental": "as §3"}, "[8]": {"tested_on": "strain with double mutations in both the proteasome and K13", "conditions": "versus wild-type strain; cited from earlier work", "excerpt": "as §1"}, "[9]": {"tested_on": "DR4", "assay": "Parasite growth inhibition assay, DR4", "type": "cell-based", "conditions": "Plasmodium falciparum, Exp 2; read-out: EC50 (Fig. 1e)", "experimental": "as §2"}, "[10]": {"tested_on": "P. falciparum 3D7A", "conditions": "compared with pyrimethamine; cited from earlier work", "excerpt": "We previously reported two classes of non-covalent Pf20S selective inhibitors, one with a fast-on/off kinetics, represented by TDI-4258[19], and one with a time-dependent inhibition kinetics, represented by TDI-8304 (Fig. 1a)[16]. […] To investigate if inhibitors of the same target with diffe ..."}}, "note": "Read-outs that look alike come from different tables or passages of the source."}
{"smiles": "C[C@@H]1CC[C@H]2[C@@H](C)C(=O)O[C@@H]3O[C@@]4(C)CC[C@@H]1[C@]32OO4", "note": "[ART, artemisinin]", "values": [{"measurement": "susceptibility to ART", "setting": "[1]", "value": "more susceptible to ART than the corresponding wild-type strains"}]}
{"smiles": "C[C@H]1[C@@H](O)O[C@@H]2O[C@@]3(C)CC[C@H]4[C@H](C)CC[C@@H]1[C@@]24OO3", "note": "[DHA, dihydroartemisinin]", "values": [{"measurement": "EC50", "setting": "[2]; Exp 1", "value": 12.2, "unit": "nM"}, {"measurement": "EC50", "setting": "[2]; Exp 2", "value": 7.1, "unit": "nM"}, {"measurement": "ring-stage survival result in words, K13 R539T", "setting": "[3]; 0–3 h rings, readout 66 h later, means of three independent experiments, paired t test", "value": "highly resistant"}, {"measurement": "ring-stage survival (Fig. 1c)", "setting": "[3]; Exp 1", "value": 18.01}, {"measurement": "ring-stage survival (Fig. 1c)", "setting": "[3]; Exp 2", "value": 10.3}, {"measurement": "ring-stage survival (Fig. 1c)", "setting": "[3]; Exp 3", "value": 6.84}, {"measurement": "EC50", "setting": "[4]; DD2, read-out: EC50 (Fig. 1e), Exp 1", "value": 1, "unit": "nM"}, {"measurement": "EC50", "setting": "[4]; DD2, read-out: EC50 (Fig. 1e), Exp 2", "value": 0.9, "unit": "nM"}, {"measurement": "EC50 shift in the erythrocyte assays", "setting": "[5]; DHA-selected clones versus Dd2", "value": "~ 10 fold"}, {"measurement": "sensitivity of DR1/2/4 in words", "setting": "[5]; trophozoite stage, versus Dd2", "value": "highly resistant"}, {"measurement": "EC50", "setting": "[6]; Exp 1", "value": 10.7, "unit": "nM"}, {"measurement": "EC50", "setting": "[6]; Exp 2", "value": 8.7, "unit": "nM"}, {"measurement": "ring-stage survival result in words, K13 Rev", "setting": "[7]; 0–3 h rings, readout 66 h later", "value": "highly susceptible"}, {"measurement": "ring-stage survival (Fig. 1c)", "setting": "[7]; Exp 1", "value": 1.86}, {"measurement": "ring-stage survival (Fig. 1c)", "setting": "[7]; Exp 2", "value": -0.27}, {"measurement": "ring-stage survival (Fig. 1c)", "setting": "[7]; Exp 3", "value": 3.91}, {"measurement": "susceptibility to DHA", "setting": "[8]", "value": "more susceptible to DHA than the wild-type strain"}, {"measurement": "EC50", "setting": "[9]", "value": 8.1, "unit": "nM"}]}
{"smiles": "Cc1cc(C(=O)N[C@@H](CC(=O)NC(C)(C)C)C(=O)NCCNC(=O)c2cccc(-n3cccn3)c2)no1", "note": "[TDI-4258]", "values": [{"measurement": "in vitro parasite reduction ratio", "setting": "[10]", "value": "modest in vitro parasite reduction ratio similar to that of the antimalarial drug pyrimethamine"}]}
